According to ChEMBL document CHEMBL1201862, “PubChem BioAssay data set” (2004):
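Grown in 96-well plates, cells were treated for 48 hours with each compound at five concentrations. Insufficient inhibition: endpoint recorded as highest concentration tested. GI50 marks 50% less growth.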 Calls of active or inactive are those of the source. Rule as the data show it: active = GI50 up to about 1.1 µM and inactive = higher.

Assays:
Test in all cases: NCI anticancer screen, dose series, 48 h
[1] = tested on: MOLT-4
[2] = tested on: T47D
[3] = tested on: LOX IMVI
[4] = tested on: MDA-MB-231
[5] = tested on: UACC-257
[6] = tested on: UACC-62
[7] = tested on: K562
[8] = tested on: NCI-H23
[9] = tested on: OVCAR-3
[10] = tested on: NCI-H522
[11] = tested on: OVCAR-4
[12] = tested on: CAKI-1
[13] = tested on: HL-60
[14] = tested on: KM12
[15] = tested on: ACHN
[16] = tested on: SK-MEL-2
[17] = tested on: HCC 2998
[18] = tested on: 786-0
[19] = tested on: MDA-MB-435

| Structure (SMILES) | GI50 [1] | GI50 [2] | GI50 [3] | GI50 [4] | GI50 [5] | GI50 [6] | GI50 [7] | GI50 [8] | GI50 [9] | GI50 [10] | GI50 [11] | GI50 [12] | GI50 [13] | GI50 [14] | GI50 [15] | GI50 [16] | GI50 [17] | GI50 [18] | GI50 [19] |
| --- | --- | --- | --- | --- | --- | --- | --- | --- | --- | --- | --- | --- | --- | --- | --- | --- | --- | --- | --- |
| c1ccc(-c2c[nH]c(SC(c3ccccc3)c3ccccc3)n2)cc1 | 15.7 µM (inactive) | 8.95 µM (inactive) | 17.6 µM (inactive) | 58.6 µM (inactive) | 18 µM (inactive) | 14.2 µM (inactive) | 12.7 µM (inactive) | 14.7 µM (inactive) | 33.4 µM (inactive) | 17.1 µM (inactive) | 23.4 µM (inactive) | 13.8 µM (inactive) | 11.1 µM (inactive) | 16.8 µM (inactive) | 24.5 µM (inactive) | 16.9 µM (inactive) | 17 µM (inactive) | 32.1 µM (inactive) | 21.1 µM (inactive) |
| O=C1CC2OCC=C3CN4CCC56c7ccccc7N1C5C2C3CC46O (centres undefined) | > 100 µM (inactive) | > 100 µM (inactive) | > 100 µM (inactive) | > 100 µM (inactive) | > 100 µM (inactive) | > 100 µM (inactive) | > 100 µM (inactive) | > 100 µM (inactive) | > 100 µM (inactive) | 47.5 µM (inactive) | > 100 µM (inactive) | 97.3 µM (inactive) | > 100 µM (inactive) | > 100 µM (inactive) | > 100 µM (inactive) | > 100 µM (inactive) | > 100 µM (inactive) | > 100 µM (inactive) | > 100 µM (inactive) |
| CC(C)(C)c1ccc(-c2nc3ccc([N+](=O)[O-])cc3c(=O)o2)cc1 | 18.7 µM (inactive) | 40.5 µM (inactive) | 15.3 µM (inactive) | 27.5 µM (inactive) | 29.6 µM (inactive) | 24.5 µM (inactive) | 19.1 µM (inactive) | 28.7 µM (inactive) | 27.4 µM (inactive) | 20.1 µM (inactive) | 17.6 µM (inactive) | 50.4 µM (inactive) | 25.5 µM (inactive) | 20 µM (inactive) | 21.9 µM (inactive) | 20.7 µM (inactive) | 12.9 µM (inactive) | 26.8 µM (inactive) | 25.1 µM (inactive) |
| NC(=O)NC(=O)c1cccc(NC(=O)CBr)c1 | < 0.01 µM (active) | 1.42 µM (inactive) | < 0.01 µM (active) | 0.0631 µM (active) | < 0.0311 µM (active) | < 0.0175 µM (active) | < 0.01 µM (active) | < 0.0195 µM (active) | < 0.01 µM (active) | < 0.01 µM (active) | 0.0706 µM (active) | < 0.01 µM (active) | < 0.01 µM (active) | 0.0216 µM (active) | < 0.0209 µM (active) | 0.0286 µM (active) | 0.282 µM (active) | < 0.01 µM (active) | < 0.0143 µM (active) |
| CCC(=O)C(CCN1CCC2(CCCc3ccccc32)CC1)(c1ccccc1)c1ccccc1 | 1.41 µM (inactive) | 3.29 µM (inactive) | 0.851 µM (active) | 2.51 µM (inactive) | 2.05 µM (inactive) | 3.72 µM (inactive) | 1.8 µM (inactive) | 2.15 µM (inactive) | 2.2 µM (inactive) | 1.75 µM (inactive) | 3.52 µM (inactive) | 3.44 µM (inactive) | 1.57 µM (inactive) | 1.79 µM (inactive) | 2.85 µM (inactive) | 2 µM (inactive) | 2.64 µM (inactive) | 2.12 µM (inactive) | 3.49 µM (inactive) |
| Nc1ncnc2c1ccn2CC=C(CO)CO | > 100 µM (inactive) | > 100 µM (inactive) | > 100 µM (inactive) | > 100 µM (inactive) | > 100 µM (inactive) | > 100 µM (inactive) | > 100 µM (inactive) | > 100 µM (inactive) | > 100 µM (inactive) | > 100 µM (inactive) | > 100 µM (inactive) | > 100 µM (inactive) | > 100 µM (inactive) | > 100 µM (inactive) | > 100 µM (inactive) | > 100 µM (inactive) | > 100 µM (inactive) | > 100 µM (inactive) | > 100 µM (inactive) |
